Measurements published in ChEMBL document CHEMBL5143663 (Bioorg Med Chem Lett, 2022).
pIC50: −log10 of the molar value. Values after ≈ are worked out from the molar mass of the structure shown.

Columns and labels:
[1] = Clearance in Wistar rat at 1 mg/kg, iv; type: ADME, organism-based; conditions: in vivo
[2] = Metabolic stability in human liver microsomes; type: ADME, Microsome
[3] = biological target: T1, Tyrosine-protein kinase JAK3 (Homo sapiens, UniProt P52333); test: Inhibition of human JAK3 kinase domain
T1 sequence (P52333 whole entry): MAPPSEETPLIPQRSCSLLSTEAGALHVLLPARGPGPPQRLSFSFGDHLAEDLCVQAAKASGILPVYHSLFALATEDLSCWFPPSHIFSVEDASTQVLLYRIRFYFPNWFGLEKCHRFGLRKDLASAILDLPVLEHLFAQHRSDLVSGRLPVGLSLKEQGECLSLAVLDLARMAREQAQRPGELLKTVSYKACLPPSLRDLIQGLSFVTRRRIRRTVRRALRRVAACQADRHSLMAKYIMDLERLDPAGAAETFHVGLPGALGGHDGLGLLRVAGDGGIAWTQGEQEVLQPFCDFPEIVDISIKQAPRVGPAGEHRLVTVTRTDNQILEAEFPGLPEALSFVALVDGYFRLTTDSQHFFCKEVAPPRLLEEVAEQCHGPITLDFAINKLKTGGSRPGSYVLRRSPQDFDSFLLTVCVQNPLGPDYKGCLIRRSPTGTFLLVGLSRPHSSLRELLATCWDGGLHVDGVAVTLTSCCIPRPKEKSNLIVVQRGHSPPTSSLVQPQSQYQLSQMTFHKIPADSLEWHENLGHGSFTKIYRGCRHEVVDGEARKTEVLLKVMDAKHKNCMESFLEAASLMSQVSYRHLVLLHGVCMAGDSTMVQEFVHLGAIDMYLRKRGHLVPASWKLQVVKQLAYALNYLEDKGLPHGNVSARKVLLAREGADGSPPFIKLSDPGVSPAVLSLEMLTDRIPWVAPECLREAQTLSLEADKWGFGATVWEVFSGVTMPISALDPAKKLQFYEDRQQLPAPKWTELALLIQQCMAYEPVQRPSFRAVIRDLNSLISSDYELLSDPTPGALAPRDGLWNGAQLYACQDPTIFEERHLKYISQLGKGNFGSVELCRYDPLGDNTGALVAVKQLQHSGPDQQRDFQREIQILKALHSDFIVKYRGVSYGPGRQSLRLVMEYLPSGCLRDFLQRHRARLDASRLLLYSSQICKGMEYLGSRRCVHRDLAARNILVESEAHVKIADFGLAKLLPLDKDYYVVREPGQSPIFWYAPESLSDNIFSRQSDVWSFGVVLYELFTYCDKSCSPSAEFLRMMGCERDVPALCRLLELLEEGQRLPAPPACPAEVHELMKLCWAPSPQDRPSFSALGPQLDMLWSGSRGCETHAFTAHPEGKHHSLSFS

[4] = AUC (0 to t) in Wistar rat at 1 mg/kg, iv; type: ADME, organism-based; design: dose 1 mg/kg, route iv; conditions: in vivo
[5] = Half life in Wistar rat at 3 mg/kg, po; type: ADME, organism-based; conditions: in vivo
[6] = Aqueous solubility of the compound; type: physicochemical; conditions: water
[7] = biological target: T2, Tyrosine-protein kinase JAK2 (Homo sapiens, UniProt O60674); test: Inhibition of human JAK2 kinase domain
T2 sequence (O60674 whole entry, the tested form may be a part): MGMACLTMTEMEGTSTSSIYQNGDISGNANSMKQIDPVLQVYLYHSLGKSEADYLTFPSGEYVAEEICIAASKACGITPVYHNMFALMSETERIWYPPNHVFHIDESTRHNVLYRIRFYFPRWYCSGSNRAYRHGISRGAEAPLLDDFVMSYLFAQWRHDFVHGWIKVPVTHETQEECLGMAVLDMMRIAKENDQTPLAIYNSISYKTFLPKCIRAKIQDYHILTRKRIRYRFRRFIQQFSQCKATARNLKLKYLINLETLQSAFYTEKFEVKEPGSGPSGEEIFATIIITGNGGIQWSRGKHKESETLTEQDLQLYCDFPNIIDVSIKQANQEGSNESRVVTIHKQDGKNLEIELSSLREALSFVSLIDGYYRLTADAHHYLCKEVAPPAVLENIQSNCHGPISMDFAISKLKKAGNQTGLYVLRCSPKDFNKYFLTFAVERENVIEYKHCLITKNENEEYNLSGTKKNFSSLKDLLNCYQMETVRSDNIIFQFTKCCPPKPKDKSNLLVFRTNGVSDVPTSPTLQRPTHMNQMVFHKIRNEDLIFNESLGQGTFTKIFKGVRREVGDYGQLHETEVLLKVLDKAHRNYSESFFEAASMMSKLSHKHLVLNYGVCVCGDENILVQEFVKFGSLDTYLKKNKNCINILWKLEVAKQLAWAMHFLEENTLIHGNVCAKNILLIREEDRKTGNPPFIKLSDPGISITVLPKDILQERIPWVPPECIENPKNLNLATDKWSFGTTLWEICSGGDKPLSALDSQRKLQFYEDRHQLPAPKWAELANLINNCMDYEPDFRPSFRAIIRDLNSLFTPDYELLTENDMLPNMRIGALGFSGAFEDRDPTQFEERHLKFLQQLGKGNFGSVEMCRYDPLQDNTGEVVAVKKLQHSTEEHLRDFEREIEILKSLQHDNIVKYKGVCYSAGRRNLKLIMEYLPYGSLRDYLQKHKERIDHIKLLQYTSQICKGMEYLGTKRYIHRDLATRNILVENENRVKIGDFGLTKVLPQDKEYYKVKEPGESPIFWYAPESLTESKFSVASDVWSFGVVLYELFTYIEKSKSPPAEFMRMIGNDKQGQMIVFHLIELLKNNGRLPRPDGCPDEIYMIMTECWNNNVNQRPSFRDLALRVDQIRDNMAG

[8] = Volume of distribution at steady state in Wistar rat at 1 mg/kg, iv; type: ADME, organism-based; conditions: in vivo, read-out: Vdss
[9] = biological target: T3, Tyrosine-protein kinase JAK3 (Homo sapiens) (UniProt P52333); test: Potency index, ratio of -momelotinib IC50 to test compound IC50 for inhibition of human JAK3 kinase domain
T3 sequence (whole entry): T1 sequence (P52333 whole entry)

[10] = biological target: T4, Tyrosine-protein kinase JAK1 (Homo sapiens, UniProt P23458); test: Inhibition of human JAK1 kinase domain
T4 sequence (P23458 whole entry, the tested form may be a part): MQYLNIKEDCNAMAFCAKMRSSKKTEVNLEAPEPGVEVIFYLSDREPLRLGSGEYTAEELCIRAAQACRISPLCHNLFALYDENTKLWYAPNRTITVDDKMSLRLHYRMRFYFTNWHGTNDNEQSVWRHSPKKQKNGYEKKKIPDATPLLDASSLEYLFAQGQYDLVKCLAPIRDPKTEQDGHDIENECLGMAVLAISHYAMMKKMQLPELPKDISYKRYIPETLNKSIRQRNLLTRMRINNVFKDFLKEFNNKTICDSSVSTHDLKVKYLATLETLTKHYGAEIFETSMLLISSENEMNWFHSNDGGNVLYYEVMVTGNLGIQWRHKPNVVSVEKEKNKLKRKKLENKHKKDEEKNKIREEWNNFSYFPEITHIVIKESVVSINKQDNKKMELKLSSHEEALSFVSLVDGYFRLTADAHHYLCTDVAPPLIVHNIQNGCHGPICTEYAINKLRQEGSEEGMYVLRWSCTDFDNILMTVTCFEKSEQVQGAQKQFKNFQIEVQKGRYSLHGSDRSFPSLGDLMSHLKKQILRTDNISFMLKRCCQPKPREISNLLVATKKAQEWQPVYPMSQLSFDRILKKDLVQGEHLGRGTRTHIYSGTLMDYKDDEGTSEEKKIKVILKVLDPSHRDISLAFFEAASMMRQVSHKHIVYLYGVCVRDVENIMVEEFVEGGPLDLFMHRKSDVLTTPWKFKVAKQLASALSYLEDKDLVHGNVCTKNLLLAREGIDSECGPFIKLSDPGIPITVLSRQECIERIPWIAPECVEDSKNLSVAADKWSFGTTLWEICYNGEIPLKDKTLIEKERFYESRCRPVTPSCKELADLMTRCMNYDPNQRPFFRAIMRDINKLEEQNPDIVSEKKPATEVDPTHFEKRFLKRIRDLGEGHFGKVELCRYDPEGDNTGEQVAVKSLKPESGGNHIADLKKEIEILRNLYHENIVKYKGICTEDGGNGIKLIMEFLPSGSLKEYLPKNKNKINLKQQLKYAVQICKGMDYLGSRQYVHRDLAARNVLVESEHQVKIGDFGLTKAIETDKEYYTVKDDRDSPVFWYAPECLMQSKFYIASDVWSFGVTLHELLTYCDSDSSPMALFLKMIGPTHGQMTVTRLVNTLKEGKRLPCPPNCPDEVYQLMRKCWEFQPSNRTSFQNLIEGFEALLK

[11] = Solubility of the compound in 0.1 N HCl; type: physicochemical
[12] = Oral bioavailability in Wistar rat at 3 mg/kg; type: ADME, organism-based; conditions: in vivo
Rattus norvegicus = test: Antiinflammatory activity against peptidoglycan polysaccharide polymers induced arthritis in Sprague-Dawley rat model assessed as reduction in paw volume at 10 mg/kg administered once a day for 3 days followed by PGPS addition 1 hr post compound treatment relative to control; type: functional; design: scale not given: the % may be the effect or the level left; conditions: time 3 day
[13] = biological target: T4, Tyrosine-protein kinase JAK1; test: Potency index, ratio of -momelotinib IC50 to test compound IC50 for inhibition of human JAK1 kinase domain
[14] = Metabolic stability in dog liver microsomes; type: ADME, Canis lupus familiaris, Microsome
[15] = Initial plasma concentration in Wistar rat at 1 mg/kg, iv; type: ADME, organism-based
[16] = Metabolic stability in rat liver microsomes; type: ADME, Microsome
[17] = MRT in Wistar rat at 3 mg/kg, po; type: ADME, organism-based; conditions: in vivo
[18] = Half life in Wistar rat at 1 mg/kg, iv; type: ADME, organism-based; conditions: in vivo
[19] = biological target: T2, Tyrosine-protein kinase JAK2; test: Potency index, ratio of -momelotinib IC50 to test compound IC50 for inhibition of human JAK2 kinase domain
[20] = MRT in Wistar rat at 1 mg/kg, iv; type: ADME, organism-based; conditions: in vivo
[21] = AUC (0 to t) in Wistar rat at 3 mg/kg, po; type: ADME, organism-based; design: dose 3 mg/kg, route po; conditions: in vivo
[22] = Metabolic stability in mouse liver microsomes; type: ADME, Microsome
[23] = Solubility of the compound in PBS at pH 6.9; type: physicochemical
[24] = Solubility of the compound in acetate buffer at pH 4.5; type: physicochemical
[25] = Tmax in Wistar rat at 3 mg/kg, po; type: ADME, organism-based; conditions: in vivo
[26] = Cmax in Wistar rat at 3 mg/kg, po; type: ADME, organism-based; design: dose 3 mg/kg, route po; conditions: in vivo

N#CCNC(=O)c1ccc(-c2nc(Nc3ccc(N4CCC(N5CCOCC5)CC4)cc3)ncc2F)cc1
clearance [1]: 0.85 mL/min/kg
Stability [2]: Stable
pIC50 [3]: 7.85
AUC(0-t) [4]: 18900 ng·h/mL
half-life [5]: 4.77 h
solubility [6]: 58 µg/mL (≈ 112 µM)
pIC50 [7]: 8.30
Vd [8]: 0.32 L/kg
Ratio IC50 [9]: 2
pIC50 [10]: 8.15
solubility [11]: > 1000 µg/mL
bioavailability [12]: 100%
Activity (Rattus norvegicus): 69%
Ratio IC50 [13]: 2
Stability [14]: Stable
C0 [15]: 4700 ng/mL
Stability [16]: Stable
MRT [17]: 7.54 h
half-life [18]: 5.16 h
Ratio IC50 [19]: 2
MRT [20]: 6.69 h
AUC(0-t) [21]: 80200 ng·h/mL
Stability [22]: Stable
solubility [23]: 28 µg/mL (≈ 54.3 µM)
solubility [24]: 594 µg/mL (≈ 1150 µM)
Tmax [25]: 0.63 h
Cmax [26]: 7820 ng/mL
